Results on eight molecules are retold here after patent US20040097734A1, “Aryl- and heteroarylcarbonylpiperazines and their use for the treatment of benign and malignant oncoses” (priority 2002, published 2004).

Values after ≈ are worked out from the molar mass of the structure shown. Where two headings read alike, the source gives them in different places.

The subject of assay [1] is human cervical carcinoma cell line KB/HeLa. The experiment in a line: XTT proliferation assay, KB/HeLa. In kind it is cell-based. Conditions: KB/HeLa cells, 45 h incubation. The text has this:
(§1) The substances according to the invention were investigated for their antiproliferative activity in a proliferation test on established tumor cell lines. The test used determines the cellular dehydrogenase activity and makes possible a determination of the cell vitality and indirectly the cell count. The cell lines used are the human cervical carcinoma cell line KB/HeLa, (ATCC CCL17), the ovarian adenocarcinoma cell line SKOV-3 (ATCC HTB77), the human glioblastoma cell line SF-268 (NCI 503138) and the lung carcinoma cell line NCI-H460 (NCI 503473). In addition, for the investigation of the cell cycle-specific action of the substance, an RKOp27 cell system was used (M. Schmidt et al. Oncogene 19(20):2423-9, 2000). RKO is a human colon carcinoma cell line, in which the cell cycle inhibitor p27^kip1 induced by means of the ecdysone expression system is expressed and can be led to a cell cycle arrest specifically in […]. A nonspecifically acting substance inhibits the proliferation independently of weather the RKO cell is or is not arrested in G1 or G2. Cell cycle-specific substances such as, for example, tubulin inhibitors are, however, only cytotoxic if cells are not arrested and the cell cycle is passed through. In table 1, the cytotoxic and/or growth-inhibiting activities of the compound described with/without expression of p27^kip1 are shown.
(§2) The adherently growing tumor cell lines KB/HeLa, SKOV-3, SF-268 and NCI-H460 were cultured under standard conditions in a fumigation incubator at 37° C., 5% CO2 and 95% atmospheric humidity. On experimental day 1, the cells are detached using trypsin/EDTA and pelleted by centrifugation. Subsequently, the cell pellet is resuspended in the respective culture medium at the corresponding cell count and reacted in a 96-well microtiter plate. The plates are then cultured overnight in the fumigation incubator. The test substances are prepared as 1 mg/ml stock solutions in DMSO and diluted to the appropriate concentrations on experimental day 2 using culture medium. The substances in culture medium are then added to the cells and incubated in the fumigation incubator for 45h. As a control, cells which are not treated with test substance are used. For the XTT assay, 1 mg/ml of XTT (sodium 3′-[1-(phenylaminocarbonyl)-3,4-tetrazolium]-bis(4-methoxy-6-nitro)benzenesulfonic acid) is dissolved in RPMI-1640 medium without Phenol Red. Additionally, a 0.383 mg/ml PMS (N-methyldibenzopyrazine methylsulfate) solution in phosphate-buffered saline solution (PBS) is prepared. On experimental day 4, 75 μl/well of XTT-PMS mixture is pipetted onto the cell plates which in the meantime have been incubated with the test substances for 45 h. For this, shortly before use, the XTT solution is mixed with the PMS solution in the ratio 50:1 (vol:vol). The cell plates are then incubated in the fumigation incubator for a further 3h and the optical density (OD490nm) is determined in a photometer. By means of the OD490nm determined, the percentage inhibition is calculated relative to the control and plotted semilogarithmically in the form of a concentration-action curve. The EC50 is calculated by means of a regression analysis from the concentration-action curve using the program Graphpad Prism.
Background: Tetrazolium dyes change colour on reduction, which living cells bring about.

The subject of assay [2] is ovarian adenocarcinoma cell line SKOV-3. The experiment in a line: XTT proliferation assay, SKOV-3. Conditions: Homo sapiens, SK-OV-3; SKOV-3 cells, 45 h incubation; read-out: XTT proliferation assay, EC50, SKOV3. The format is cell-based.
Description: as §1, §2

The test system of assay [3] is human glioblastoma cell line SF-268. The experiment in a line: XTT proliferation assay, SF-268. In kind it is cell-based. The note with it: SF-268 cells, 45 h incubation.
Description: as §1, §2

The test system of assay [4] is lung carcinoma cell line NCI-H460. In words: XTT proliferation assay, NCI-H460. The format is cell-based. The note with it: Homo sapiens; NCI-H460 cells, 45 h incubation.
Description: as §1, §2

Assay [5] relates to RKOp27 human colon carcinoma cell line. The experiment in a line: Cell cycle analysis by means of the RKOp27 model (XTT). Conditions: RKOp27, 45 h, RKOp27 cells, read-out: XTT proliferation assay, EC50, RKOP27. In kind it is cell-based.
Description: as §1, §2
The assay is carried out in 96-well plates. […] By comparison of the activity on induced and noninduced cells, conclusions on the mechanism of action (cell cycle specificity) of the therapeutics can be drawn. […] are inoculated in approximately three-fold higher cell count, since division no longer takes place during the assay in comparison with uninduced cells (20000 cells/well induced, 6250 cells/well not induced). The controls are untreated cells (+/−induction). The induction is carried out with 3 μM muristerone A On the 1st day, the cells are exposed (+/− muristerone A) and incubated at 37° C. for 24h. […]

The subject of the next assay is bovine tubulin. The experiment in a line: Tubulin polymerization assay. The format is biochemical. Conditions: average of two independent experiments; for Inhibition of tubulin polymerization, EC50, with 30% MAPs: bovine tubulin with 30% MAPs; for Inhibition of tubulin polymerization, EC50, without MAPs: MAP-free bovine tubulin. Here is the method: Selected substances were tested for inhibition of the polymerization of bovine tubulin in an in-vitro test. In this test, tubulin purified by cycles of polymerization and depolymerization is employed, which is polymerized by addition of GTP and warming. In Table 2, the EC50 values of the inhibition of polymerization of tubulin with 30% associated proteins (MAPs) and of MAP-free tubulin are indicated.
The assay is carried out based on the method of Bollag et. al. Lyophilized bovine tubulin (cytoskeleton, ML113 tubulin 30% MAPs, TL238 tubulin MAP free) is dissolved in a concentration of 2 mg/ml (ML113 in 80 mM PIPES, 0.5 mM EGTA, 2 mM MgCl2, pH6.9, 1 mM GTP) or 5 mg/ml (TL238 in 80 mM PIPES, 1 mM EGTA, 0.5 mM MgCl2, 20% (v:v) glycerol pH 6.9, 1 mM GTP). The test substances are diluted in 10% DMSO (v:v) and 5 μl of the dilutions are transferred to a 96-well microtiter plate (Nunc, half area plate). After addition of 45 μl of the tubulin solution, the polymerization is determined at 340 nm in a Spectramax 190 microtiter plate reader (Molecular devices) by means of a kinetics program at 30 sec intervals over a period of 20 min. The resulting area under curve values are used for the calculation of the inhibition with respect to the untreated control and plotted semilogarithmically in the form of a concentration-action curve. The EC50 is calculated by means of a regression analysis from the concentration-action curve using the program Graphpad Prism.

[6] abbreviates: p27kip1 induced with 3 μM muristerone A (arrested).
[7] abbreviates: without expression of p27kip1 (not induced).

Turning to `COc1cccc(N2CCN(C(=O)c3ccnn3-c3ccccc3)CC2)c1` [Compound 14, [4-(3-Methoxyphenyl)piperazin-1-yl]-(2-phenyl-2H-pyrazol-3-yl)methanone], the EC50 in assay [1] is 0.012 µg/mL (≈ 0.0331 µM); in assay [2], 0.008 µg/mL (≈ 0.0221 µM); in assay [3] it was 0.009 µg/mL (≈ 0.0248 µM); in assay [4] it was 0.005 µg/mL (≈ 0.0138 µM); in assay [5] (setting [6]), over 3.16 µg/mL; in assay [5] (setting [7]) it was 0.006 µg/mL (≈ 0.0166 µM). The “Inhibition of tubulin polymerization, EC50, with 30% MAPs” value (“Inhibition … with 30% MAPs” below) in the assay with bovine tubulin came out at 0.46 µg/mL.
Turning to `CSc1nsc(SC)c1C(=O)N1CCN(c2cccc(C)n2)CC1` [Compound 7, (3,5-Bismethylsulfanylisothiazol-4-yl)-[4-(6-methylpyridin-2-yl)piperazin-1-yl]methanone], the EC50 in assay [1] is 2.71 µg/mL (≈ 7.12 µM); in assay [2] it was 1.01 µg/mL (≈ 2.65 µM); in assay [4], 1.54 µg/mL (≈ 4.05 µM); in assay [5] (setting [6]) it was over 3.16 µg/mL; in assay [5] (setting [7]), 1.2 µg/mL (≈ 3.15 µM).
`COc1cc(OC)cc(N2CCN(C(=O)C3c4ccccc4Oc4ccccc43)CC2)c1` [Compound 12, [4-(3,5-Dimethoxyphenyl)piperazin-1-yl]-(9H-xanthen-9-yl)methanone]: the EC50 in assay [1] is 0.08 µg/mL (≈ 0.186 µM); in assay [2], 0.029 µg/mL (≈ 0.0674 µM); in assay [3], 0.075 µg/mL (≈ 0.174 µM); in assay [4], 0.064 µg/mL (≈ 0.149 µM); in assay [5] (setting [6]), over 3.16 µg/mL; in assay [5] (setting [7]), 0.058 µg/mL (≈ 0.135 µM). The “Inhibition of tubulin polymerization, EC50, without MAPs” value in the assay with bovine tubulin turned out to be 1.71 µg/mL. The “Inhibition … with 30% MAPs” value in the assay with bovine tubulin stood at 1.16 µg/mL.
As to `Cc1cccc(N2CCN(C(=O)c3ccnn3-c3ccccc3)CC2)n1` [Compound 15, [4-(6-Methylpyridin-2-yl)piperazin-1-yl]-(2-phenyl-2H-pyrazol-3-yl)methanone], the EC50 in assay [1] is 0.04 µg/mL (≈ 0.115 µM); in assay [2] it was 0.018 µg/mL (≈ 0.0518 µM); in assay [3], 0.036 µg/mL (≈ 0.104 µM); in assay [4], 0.024 µg/mL (≈ 0.0691 µM); in assay [5] (setting [6]), over 3.16 µg/mL; in assay [5] (setting [7]), 0.022 µg/mL (≈ 0.0633 µM). For the same molecule, the “Inhibition … with 30% MAPs” value with bovine tubulin came to 0.88 µg/mL.
As to `O=C(c1ccnn1-c1ccccc1)N1CCN(c2cccc(O)c2)CC1` [Compound 16, [4-(3-Hydroxyphenyl)piperazin-1-yl]-(2-phenyl-2H-pyrazol-3-yl)methanone], the EC50 in assay [1] is 0.147 µg/mL (≈ 0.422 µM); in assay [2], 0.082 µg/mL (≈ 0.235 µM); in assay [3], 0.1 µg/mL (≈ 0.287 µM); in assay [4], 0.087 µg/mL (≈ 0.25 µM); in assay [5] (setting [6]), over 3.16 µg/mL; in assay [5] (setting [7]), 0.064 µg/mL (≈ 0.184 µM). For the same molecule, the “Inhibition … with 30% MAPs” value with bovine tubulin came to 4.20 µg/mL.
For `Cc1cccc(N2CCN(C(=O)c3cccc4c3-c3ccccc3C4=O)CC2)n1` [Compound 2, 4-[4-(6-Methylpyridin-2-yl)piperazine-1-carbonyl]fluoren-9-one], the EC50 in assay [1] was 2.59 µg/mL (≈ 6.76 µM); in assay [2] it was 0.585 µg/mL (≈ 1.53 µM); in assay [3], 0.939 µg/mL (≈ 2.45 µM); in assay [4], 0.886 µg/mL (≈ 2.31 µM); in assay [5] (setting [6]), over 3.16 µg/mL; in assay [5] (setting [7]), 0.326 µg/mL (≈ 0.85 µM).
In the case of `O=C1c2ccccc2-c2c1cccc2C(=O)N1CCN(c2cccc(O)c2)CC1` [Compound 3, 4-[4-(3-Hydroxyphenyl)piperazine-1-carbonyl]fluoren-9-one], the EC50 was 4.32 µg/mL (≈ 11.2 µM) in assay [1]; 0.397 µg/mL (≈ 1.03 µM) in assay [2]; 0.478 µg/mL (≈ 1.24 µM) in assay [3]; 0.853 µg/mL (≈ 2.22 µM) in assay [4]; over 3.16 µg/mL in assay [5] (setting [6]); 0.726 µg/mL (≈ 1.89 µM) in assay [5] (setting [7]). The “Inhibition … with 30% MAPs” value in the assay on bovine tubulin was 4.77 µg/mL.
With `COc1cc(OC)cc(N2CCN(C(=O)c3cccc4c3-c3ccccc3C4=O)CC2)c1` [Compound 1, 4-[4-(3,5-Dimethoxyphenyl)piperazine-1-carbonyl]fluoren-9-one], the EC50 in assay [1] is 0.555 µg/mL (≈ 1.3 µM); in assay [2], 0.4 µg/mL (≈ 0.934 µM); in assay [3] it was 0.309 µg/mL (≈ 0.721 µM); in assay [4], 0.312 µg/mL (≈ 0.728 µM); in assay [5] (setting [6]), over 3.16 µg/mL; in assay [5] (setting [7]), 0.208 µg/mL (≈ 0.485 µM). Moreover, in the assay on bovine tubulin, the “Inhibition of tubulin polymerization, EC50, without MAPs” value was 1.36 µg/mL. For the same molecule, the “Inhibition … with 30% MAPs” value with bovine tubulin worked out at 0.86 µg/mL.
